Consider 13 compounds from ChEMBL document CHEMBL2331377, “Spirocyclic compounds, potent CCR1 antagonists” (Bioorg Med Chem Lett, 2013).

For data set [1], the target named is T1, C-C chemokine receptor type 1 (Homo sapiens, UniProt P32246).
T1 sequence (P32246 whole entry): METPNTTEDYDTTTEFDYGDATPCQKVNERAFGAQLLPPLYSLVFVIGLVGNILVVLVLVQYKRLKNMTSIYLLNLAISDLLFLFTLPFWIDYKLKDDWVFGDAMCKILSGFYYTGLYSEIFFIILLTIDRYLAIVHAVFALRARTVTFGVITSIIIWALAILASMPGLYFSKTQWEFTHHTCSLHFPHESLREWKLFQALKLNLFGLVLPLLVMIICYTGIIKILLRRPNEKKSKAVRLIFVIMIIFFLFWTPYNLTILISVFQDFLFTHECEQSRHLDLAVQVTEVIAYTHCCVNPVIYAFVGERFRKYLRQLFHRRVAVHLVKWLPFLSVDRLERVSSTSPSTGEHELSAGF
Description: Displacement of [125I]MIP-1alpha from human recombinant CCR1 expressed in HEK293 cells after 1.5 hrs. In kind it is cell-based.

Data set [2] is described as follows: in vitro. Particulars: rat, hepatocytes.
Data set [3] in a line: in vitro. Particulars: human.
Data set [4] is described as follows: in vitro. Particulars: human, Caco-2.
Data set [5] is described as follows: in vitro. The following applies: human, hepatocytes.
Data set [6] can be described thus: Clearance in rat liver microsomes. Type of data set: ADME, Microsome. The following applies: read-out: CLH. (In general: Liver microsomes are a subcellular fraction often used to study metabolism.)

By IC50 is commonly meant the concentration needed to halve the response being measured. One may read the hepatocyte CLint as the rate of metabolic loss divided by the concentration. One may read the Papp as the rate of passage across a membrane or cell layer, normalised by area and donor concentration. Read a low Papp as poor permeation. For the compound `CC(=O)Nc1ccc(F)cc1OC[C@@H](O)CN1CCC2(CC1)Cc1cc(F)ccc1O2`, the IC50 in data set [1] was 0.36 nM. Moreover, the hepatocyte CLint was determined as 12 µL/min/1e6 cells in the data set “in vitro [2]” and 9.3 µL/min/1e6 cells in “in vitro [5]”. Besides, the microsomal CLint was found to be 17.8 µL/min/mg in the data set “in vitro [3]” (liver microsomes) and 29 µL/min/mg in data set [6]. The compound further had a Papp in the data set “in vitro [4]” of 18 ×10⁻⁶ cm/s.
Regarding `CC(=O)Nc1ccc(O)cc1OC[C@@H](O)CN1CCC2(CC1)Cc1cc(F)ccc1O2`, the hepatocyte CLint in the data set “in vitro [2]” is 17.6 µL/min/1e6 cells; in “in vitro [5]” it was below 3.6 µL/min/1e6 cells. The compound also had a microsomal CLint in the data set “in vitro [3]” (microsomes) below 10 µL/min/mg. In addition, the Papp in “in vitro [4]” was determined as 6.6 ×10⁻⁶ cm/s.
For the compound `CC(=O)Nc1ccc(F)cc1OC[C@@H](O)CN1CCC2(CC1)Cc1cc(Cl)ccc1O2`, in data set [1], the IC50 came out at 0.64 nM. Besides, the results for the hepatocyte CLint in “in vitro [2]” and in the data set “in vitro [5]” were 17.5 µL/min/1e6 cells and 6.1 µL/min/1e6 cells, respectively. In the data set “in vitro [3]” (liver microsomes), the microsomal CLint was determined as 13.5 µL/min/mg. Moreover, in “in vitro [4]”, the Papp worked out at 17 ×10⁻⁶ cm/s.
With `COc1ccc(NC(C)=O)c(OC[C@@H](N)CN2CCC3(CC2)Cc2ccccc2O3)c1`, the IC50 in data set [1] came out at 32 nM. In “in vitro [3]” (liver microsomes), this compound came in with a microsomal CLint of 18.8 µL/min/mg.
For the compound `COc1ccc(NC(C)=O)c(OC[C@@H](N)CN2CCC3(CC2)Cc2cc(F)ccc2O3)c1`, the IC50 in data set [1] is 9 nM. The compound also yielded a microsomal CLint in “in vitro [3]” (liver microsomes) of 17.4 µL/min/mg. The compound also came in with a hepatocyte CLint in the data set “in vitro [5]” of 3.5 µL/min/1e6 cells.
For the compound `CC(=O)Nc1ccc(O)cc1OC[C@@H](N)CN1CCC2(CC1)Cc1cc(F)ccc1O2`, the IC50 in data set [1] came to 1.4 nM. In addition, the hepatocyte CLint in the data set “in vitro [2]” and in the data set “in vitro [5]” was below 3 µL/min/1e6 cells throughout. Besides, the microsomal CLint (in the data set “in vitro [3]” (liver microsomes); in data set [6]) was below 10 µL/min/mg in each case. Further, the Papp in “in vitro [4]” came out at 2.7 ×10⁻⁶ cm/s.
As to `CC(=O)Nc1ccccc1OC[C@@H](O)CN1CCC2(CC1)Cc1cc(Cl)ccc1O2`, the IC50 in data set [1] was found to be 0.96 nM. The values for the hepatocyte CLint in the data set “in vitro [2]” and in the data set “in vitro [5]” were 26 µL/min/1e6 cells and 2.5 µL/min/1e6 cells, respectively. The same compound displayed a microsomal CLint in the data set “in vitro [3]” (liver microsomes) below 17 µL/min/mg. Moreover, in “in vitro [4]”, the Papp was determined as 26 ×10⁻⁶ cm/s.
In the case of `CC(=O)Nc1ccccc1OC[C@@H](O)CN1CCC2(CC1)Cc1cc(F)ccc1O2`, in data set [1], the IC50 stood at 0.96 nM. In “in vitro [3]” (liver microsomes), this compound returned a microsomal CLint of 25.5 µL/min/mg. Moreover, the apparent permeability coefficient (Papp) in “in vitro [4]” was found to be 16.5 ×10⁻⁶ cm/s. Besides, the hepatocyte CLint in the data set “in vitro [5]” came to 11 µL/min/1e6 cells.
In the case of `CC(=O)Nc1ccc(O)cc1OC[C@@H](O)CN1CCC2(CC1)Cc1cc(Cl)ccc1O2`, the hepatocyte CLint was 25.7 µL/min/1e6 cells in “in vitro [2]” and below 3 µL/min/1e6 cells in the data set “in vitro [5]”. The compound also registered a microsomal CLint in the data set “in vitro [3]” (liver microsomes) below 10 µL/min/mg.
Consider `CC(=O)Nc1ccc(O)cc1OC[C@@H](N)CN1CCC2(CC1)Cc1cc(Cl)ccc1O2`, for which the IC50 in data set [1] was found to be 0.79 nM. The hepatocyte CLint in “in vitro [2]” was 4.2 µL/min/1e6 cells; in “in vitro [5]” it was below 3 µL/min/1e6 cells. For the same compound, the microsomal CLint (in the data set “in vitro [3]” (liver microsomes); in data set [6]) was below 10 µL/min/mg throughout. Also, in “in vitro [4]”, the Papp is 2.7 ×10⁻⁶ cm/s.
Consider `CC(=O)Nc1ccc(O)cc1OC[C@@H](N)CN1CCC2(CC1)Cc1ccccc1O2`, for which the IC50 in data set [1] came to 18 nM. Also, the hepatocyte CLint in the data set “in vitro [2]” is 6.6 µL/min/1e6 cells; in the data set “in vitro [5]”, below 3 µL/min/1e6 cells. For the same compound, the microsomal CLint was below 10 µL/min/mg in the data set “in vitro [3]” (liver microsomes) and 14 µL/min/mg in data set [6]. Moreover, the Papp in “in vitro [4]” stood at 1.6 ×10⁻⁶ cm/s.
As for `COc1ccc(NC(C)=O)c(OC[C@@H](O)CN2CCC3(CC2)Cc2cc(Cl)ccc2O3)c1`, the IC50 in data set [1] worked out at 0.9 nM. In addition, in “in vitro [3]” (liver microsomes), the microsomal CLint stood at 55 µL/min/mg. This compound also gave a Papp in “in vitro [4]” of 24.4 ×10⁻⁶ cm/s.
For the compound `COc1ccc(NC(C)=O)c(OC[C@@H](N)CN2CCC3(CC2)Cc2cc(Cl)ccc2O3)c1`, the IC50 in data set [1] is 6 nM. The compound also yielded a microsomal CLint in the data set “in vitro [3]” (liver microsomes) of 12.6 µL/min/mg.
